The record followed here is patent EP0731710B1, “THYMOSINE ALPHA 1 CONTAINING COMPOSITIONS FOR THE TREATMENT OF PATIENTS HAVING DECOMPENSATED LIVER DISEASE” (ALPHA 1 BIOMEDICALS, INC., priority 1993, dated 2003).

No end group written: not given here.

This series in a line: Tolerability / adverse effects of Thymosin alpha 1 in patients with cirrhosis and hepatic decompensation. In kind it is in vivo, patient. On the procedure:
Patient 2 was a person with very far-advanced cirrhosis secondary to long-standing chronic Hepatitis B infection. Their findings included jaundice, weakness, severe encephalopathy, hepato-renal syndrome with renal failure, and portal gastropathy secondary to increased portal vein pressure. They received Thymosin alpha 1 at a dose of 1.6 mg subcutaneously twice weekly under a compassionate use protocol in an attempt to cure their Hepatitis B virus infection so that they could received a liver transplant. […] Death was associated with complications of portal hypertension and cirrhosis, and not due to therapy with Thymosin alpha 1.
They were started on Thymosin alpha 1 at a dose of 1.6 mg subcutaneously twice weekly, with the intention of treating them for 26 weeks. […] However, their therapy was discontinued after 46 injections because of complications of the cirrhosis. They expired about three weeks after their last injection. Their death was attributed to bleeding esophageal varices and hepatoma.
In summary, the above three patients with cirrhosis and hepatic decompensation received Thymosin alpha 1 at a dose of 1.6 mg subcutaneously twice weekly for periods varying from 3.5 weeks to 6 months. In each case, the intent of therapy was to cure chronic Hepatitis B virus infection so that the patient could be considered for transplant. […] Two other patients, both of whom had far-advanced disease, died of complications of cirrhosis, with no evidence that Thymosin alpha 1 contributed to their deaths.

Turning to “Ac-SDAAVDTSSEITTKDLKEKKEVVEEAEN [Thymosin alpha 1]”, the side effects result (Patient 2, 1.6 mg subcutaneously twice weekly, 3 1/2 weeks of therapy) was “no side effects”. The adverse effects result (Patient 3, 1.6 mg subcutaneously twice weekly, 46 injections) is “no adverse effects”. The “adverse effects due to Tα1” value (three patients with cirrhosis and hepatic decompensation, 1.6 mg subcutaneously twice weekly for 3.5 weeks to 6 months) is “None of the patients reported any adverse effects”.
